Results as given in ChEMBL document CHEMBL3885881, “DrugMatrix”.

Species: Rattus norvegicus
Test: DrugMatrix - Regimen: Daily Repeat
Assay type: toxicity, organism-based, Sprague-Dawley
Parameters: regimen Daily Repeat, gender Male, age 6-8 weeks
Details: in vivo, po, route oral GAVAGE, vehicle 100 % WATER; for ABSOLUTE BASOPHIL / ABSOLUTE EOSINOPHIL / ABSOLUTE LYMPHOCYTE / ABSOLUTE MONOCYTE / ABSOLUTE SEGMENTED NEUTROPHIL / BASOPHIL / EOSINOPHIL / ERYTHROCYTE COUNT / HEMATOCRIT / HEMOGLOBIN / LEUKOCYTE COUNT / LYMPHOCYTE / MEAN CORPUSCULAR HEMOGLOBIN / MEAN CORPUSCULAR HEMOGLOBIN CONCENTRATION / MEAN CORPUSCULAR VOLUME / MONOCYTE / NEUTROPHIL / NUCLEATED RED BLOOD CELLS / PLATELET COUNT: tissue Blood; for ALANINE AMINOTRANSFERASE / ALBUMIN / ALKALINE PHOSPHATASE / ASPARTATE AMINOTRANSFERASE / BLOOD UREA NITROGEN / CARBON DIOXIDE / CHLORIDE / CHOLESTEROL / CREATINE PHOSPHOKINASE / CREATININE / GLUCOSE / LACTATE DEHYDROGENASE / LIPASE / PHOSPHORUS / POTASSIUM / SODIUM / TOTAL BILIRUBIN / TOTAL PROTEIN / URIC ACID: tissue Plasma
[1] = 300 mg/kg, 120 h, dose level Low, time 5 day
[2] = 3000 mg/kg, 72 h, dose level High, time 3 day
[3] = 3000 mg/kg, 120 h, dose level High, time 5 day

CC(Cl)(Cl)Cl [TRICHLOROETHANE]
ABSOLUTE BASOPHIL [1]: 0 CELLS/uL | ABSOLUTE EOSINOPHIL [1]: 0 CELLS/uL | ABSOLUTE LYMPHOCYTE [1]: 11569 CELLS/uL | ABSOLUTE MONOCYTE [1]: 149.67 CELLS/uL | ABSOLUTE SEGMENTED NEUTROPHIL [1]: 1081.33 CELLS/uL | BASOPHIL [1]: 0% | EOSINOPHIL [1]: 0% | ERYTHROCYTE COUNT [1]: 5.76 x10E6/uL | HEMATOCRIT [1]: 36.17% | HEMOGLOBIN [1]: 14.07 G/DL | LEUKOCYTE COUNT [1]: 12.8 x10E3/uL | LYMPHOCYTE [1]: 90% | MEAN CORPUSCULAR HEMOGLOBIN [1]: 24.43 pg | MEAN CORPUSCULAR HEMOGLOBIN CONCENTRATION [1]: 38.9 G/DL | MEAN CORPUSCULAR VOLUME [1]: 62.7 fL | MONOCYTE [1]: 1% | NEUTROPHIL [1]: 9% | NUCLEATED RED BLOOD CELLS [1]: 0.33 /100WBC | PLATELET COUNT [1]: 1070.67 x10E3/uL | ALANINE AMINOTRANSFERASE [1]: 50.33 u/L | ALBUMIN [1]: 4.07 G/DL | ALKALINE PHOSPHATASE [1]: 394 u/L | ASPARTATE AMINOTRANSFERASE [1]: 95 u/L | BLOOD UREA NITROGEN [1]: 16.33 mg/dL | CARBON DIOXIDE [1]: 32.33 mmol/L | CHLORIDE [1]: 103.33 MEQ/L | CHOLESTEROL [1]: 65 mg/dL | CREATINE PHOSPHOKINASE [1]: 400 u/L | CREATININE [1]: 0.17 mg/dL | GLUCOSE [1]: 135.67 mg/dL | LACTATE DEHYDROGENASE [1]: 117.67 u/L | LIPASE [1]: 10.67 u/L | PHOSPHORUS [1]: 11.3 mg/dL | POTASSIUM [1]: 6.41 MEQ/L | SODIUM [1]: 148.03 MEQ/L | TOTAL BILIRUBIN [1]: 0.2 mg/dL | TOTAL PROTEIN [1]: 6.03 G/DL | URIC ACID [1]: 0.9 mg/dL | ABSOLUTE BASOPHIL [2]: 0 CELLS/uL | ABSOLUTE EOSINOPHIL [2]: 0 CELLS/uL | ABSOLUTE LYMPHOCYTE [2]: 11145.5 CELLS/uL | ABSOLUTE MONOCYTE [2]: 120.5 CELLS/uL | ABSOLUTE SEGMENTED NEUTROPHIL [2]: 784 CELLS/uL | BASOPHIL [2]: 0% | EOSINOPHIL [2]: 0% | ERYTHROCYTE COUNT [2]: 6.08 x10E6/uL | HEMATOCRIT [2]: 38.1% | HEMOGLOBIN [2]: 14.85 G/DL | LEUKOCYTE COUNT [2]: 12.05 x10E3/uL | LYMPHOCYTE [2]: 92.5% | MEAN CORPUSCULAR HEMOGLOBIN [2]: 24.45 pg | MEAN CORPUSCULAR HEMOGLOBIN CONCENTRATION [2]: 39 G/DL | MEAN CORPUSCULAR VOLUME [2]: 62.65 fL | MONOCYTE [2]: 1% | NEUTROPHIL [2]: 6.5% | NUCLEATED RED BLOOD CELLS [2]: 0.5 /100WBC | PLATELET COUNT [2]: 1361.5 x10E3/uL | ALANINE AMINOTRANSFERASE [2]: 49.5 u/L | ALBUMIN [2]: 4.15 G/DL | ALKALINE PHOSPHATASE [2]: 322 u/L | ASPARTATE AMINOTRANSFERASE [2]: 87.5 u/L | BLOOD UREA NITROGEN [2]: 11.5 mg/dL | CARBON DIOXIDE [2]: 33 mmol/L | CHLORIDE [2]: 102.5 MEQ/L | CHOLESTEROL [2]: 91.5 mg/dL | CREATINE PHOSPHOKINASE [2]: 450 u/L | CREATININE [2]: 0.17 mg/dL | GLUCOSE [2]: 131 mg/dL | LACTATE DEHYDROGENASE [2]: 260 u/L | LIPASE [2]: 9.5 u/L | PHOSPHORUS [2]: 9.5 mg/dL | POTASSIUM [2]: 5.71 MEQ/L | SODIUM [2]: 148.15 MEQ/L | TOTAL BILIRUBIN [2]: 0.1 mg/dL | TOTAL PROTEIN [2]: 6.35 G/DL | URIC ACID [2]: 0.5 mg/dL | ABSOLUTE BASOPHIL [3]: 0 CELLS/uL | ABSOLUTE EOSINOPHIL [3]: 0 CELLS/uL | ABSOLUTE LYMPHOCYTE [3]: 9273 CELLS/uL | ABSOLUTE MONOCYTE [3]: 138.67 CELLS/uL | ABSOLUTE SEGMENTED NEUTROPHIL [3]: 1121.67 CELLS/uL | BASOPHIL [3]: 0% | EOSINOPHIL [3]: 0% | ERYTHROCYTE COUNT [3]: 5.95 x10E6/uL | HEMATOCRIT [3]: 36.77% | HEMOGLOBIN [3]: 13.97 G/DL | LEUKOCYTE COUNT [3]: 10.53 x10E3/uL | LYMPHOCYTE [3]: 87.67% | MEAN CORPUSCULAR HEMOGLOBIN [3]: 23.57 pg | MEAN CORPUSCULAR HEMOGLOBIN CONCENTRATION [3]: 37.97 G/DL | MEAN CORPUSCULAR VOLUME [3]: 62 fL | MONOCYTE [3]: 1.33% | NEUTROPHIL [3]: 11% | NUCLEATED RED BLOOD CELLS [3]: 0 /100WBC | PLATELET COUNT [3]: 1168 x10E3/uL | ALANINE AMINOTRANSFERASE [3]: 46.33 u/L | ALBUMIN [3]: 4.03 G/DL | ALKALINE PHOSPHATASE [3]: 272 u/L | ASPARTATE AMINOTRANSFERASE [3]: 71 u/L | BLOOD UREA NITROGEN [3]: 14.33 mg/dL | CARBON DIOXIDE [3]: 30.67 mmol/L | CHLORIDE [3]: 100.33 MEQ/L | CHOLESTEROL [3]: 74 mg/dL | CREATINE PHOSPHOKINASE [3]: 156.67 u/L | CREATININE [3]: 0.17 mg/dL | GLUCOSE [3]: 120.67 mg/dL | LACTATE DEHYDROGENASE [3]: 107 u/L | LIPASE [3]: 10.33 u/L | PHOSPHORUS [3]: 12.33 mg/dL | POTASSIUM [3]: 6.12 MEQ/L | SODIUM [3]: 147.17 MEQ/L | TOTAL BILIRUBIN [3]: 0.13 mg/dL | TOTAL PROTEIN [3]: 6.2 G/DL | URIC ACID [3]: 1.1 mg/dL
